Assay results: US5001118A, “Method for preventing senescence and increasing bone mass” (priority 1986, dated 1991)

Tests used:
ICR type male mice = experiment: Acute toxicity, oral administration; type: in vivo; conditions: 100 mg/kg p.o.
Protocol: (§1) A test solution was prepared by dissolving the present substance, 24R,25-(OH)2 -D3, in ethanol and again dissolving the resultant ethanol solution in triglyceride ester of a fatty acid of 8 to 10 carbon atoms so that the ethanol concentration is 2%. Then, the test solution was orally administered (p.o.) at a dose of 100 mg/kg to a test group of 10 ICR type male mice (each weighing 25±3 g). For two weeks, the mice were kept under observation for sign of toxication. […] They were then sacrificed and subjected to biochemical blood inspection, anatomical observation, and histopathological inspection.

[1] = Acute toxicity, oral administration; type: in vivo; conditions: mouse, in vivo, po
Protocol: as §1

ICR type mice [2] = experiment: Weight of internal organs, daily oral administration; type: in vivo, mouse (ICR type); parameters: key: .dwnarw.: Decrease below control; →: No difference from control; .uparw.: Increase above control
Protocol: (§2) Solutions obtained by dissolving the present substance, 24R,25-(OH)2 -D3 in a prescribed concentration in triglyceride of a fatty acid of 8 to 10 carbon atoms containing 1% of ethanol were administered respectively, orally, forcedly and daily to three male-groups and three female-groups of ICR type mice 5 weeks old at dosages of 10, 100, and 1,000 μg/kg.day. The results are compared below with respect to the following items with those obtained of the male- and female-groups using only the solvent without the present substance.

[3] = test system: femurs and tibias of male Wister rats; experiment: Soft X-ray photographs: volumes of cortical bone and sponge bone; type: in vivo, rat (Wister); conditions: 400 μg/kg.day orally, 24 months, vs control
Protocol: Male Wister rats 4 weeks old were preliminarily kept for two weeks. For the subsequent 24 months, the present substance, 24R,25-(OH)2 -D3, was orally administered daily at a dosage of 400 μg/kg.day to the pre-bred rats. Then, the aged rats were sacrificed and their femurs and tibias were collected in the form with adhering flesh, and soft X-ray photographs thereof were taken with a camera (produced by Soflon Corp. and marketed under product code of "Model NST-1005"). By the obtained photographs the volumes of the cortical bone and the sponge bone were measured. Further, as to a part of the femurs the central portion in the direction of the major axis of the femurs was inspected with a microdensitometer thereby analyzing the picture of pattern of shade concentration to calculate the index by the conventional M.D. method. As regards the manner of administration, a modified feed was prepared by uniformly dispersing a prescribed amount of the present substance, 24R,25-(OH)2 -D3, in glycine and admixing the resultant dispersing mixture with a marketed feed (produced by Nippon Clea Co., Ltd. under product code of "CE-2") in such a ratio as to give a final glycine concentration of 0.5% by weight, and the modified feed was consumed by the rats. To the rats of the control group, the same marketed feed containing 0.5% by weight of glycine was given.

ICR type mice [4] = experiment: Inspection of urine, daily oral administration; type: in vivo, mouse (ICR type); parameters: key: .dwnarw.: Decrease below control; →: No difference from control; .uparw.: Increase above control
Protocol: as §2

With `C=C1CC[C@H](O)C/C1=C/C=C1\CCC[C@]2(C)[C@@H]([C@H](C)CC[C@@H](O)C(C)(C)O)CC[C@@H]12` [24R,25-(OH)2 -D3] the sign of abnormality (ICR type male mice; 10 ICR male mice, two weeks) was “no sign of abnormality”, the survival (ICR type male mice; 10 ICR male mice, two weeks) was “All of the mice survived” and the “biochemical blood inspection, anatomical observation, and histopathological inspection vs control” value (ICR type male mice; ICR male mice, after two weeks) was “not different at all”. For the same compound, the LD50 at 336 h [1] was at least 100 mg/kg, the “Weight of adrenal gland” value (ICR type mice [2]; female, 10 μg/kg) was “→” and the Weight of brain (ICR type mice [2]; female, 10 μg/kg) was “→”. The Weight of heart (ICR type mice [2]; female, 10 μg/kg) was “→”, the Weight of kidney (ICR type mice [2]; female, 10 μg/kg) was “→” and the Weight of liver (ICR type mice [2]; female, 10 μg/kg) was “→”. For the same compound, the Weight of lung (ICR type mice [2]; female, 10 μg/kg) was “→”, the Weight of ovary (ICR type mice [2]; female, 10 μg/kg) was “→” and the “Weight of pituitary gland” value (ICR type mice [2]; female, 10 μg/kg) was “→”. The Weight of spleen (ICR type mice [2]; female, 10 μg/kg) was “→”, the “Weight of thymus gland” value (ICR type mice [2]; female, 10 μg/kg) was “→” and the Weight of uterus (ICR type mice [2]; female, 10 μg/kg) was “→”. The “Weight of adrenal gland” value (ICR type mice [2]; female, 100 μg/kg) was “→”, the Weight of brain (ICR type mice [2]; female, 100 μg/kg) was “→” and the Weight of heart (ICR type mice [2]; female, 100 μg/kg) was “→”. For the same compound, the Weight of kidney (ICR type mice [2]; female, 100 μg/kg) was “→”, the Weight of liver (ICR type mice [2]; female, 100 μg/kg) was “→” and the Weight of lung (ICR type mice [2]; female, 100 μg/kg) was “→”. The Weight of ovary (ICR type mice [2]; female, 100 μg/kg) was “→”, the “Weight of pituitary gland” value (ICR type mice [2]; female, 100 μg/kg) was “→” and the Weight of spleen (ICR type mice [2]; female, 100 μg/kg) was “→”. The “Weight of thymus gland” value (ICR type mice [2]; female, 100 μg/kg) was “→”, the Weight of uterus (ICR type mice [2]; female, 100 μg/kg) was “→” and the “Weight of adrenal gland” value (ICR type mice [2]; female, 1000 μg/kg) was “→”. The Weight of brain (ICR type mice [2]; female, 1000 μg/kg) was “→”, the Weight of heart (ICR type mice [2]; female, 1000 μg/kg) was “→” and the Weight of kidney (ICR type mice [2]; female, 1000 μg/kg) was “→”. The Weight of liver (ICR type mice [2]; female, 1000 μg/kg) was “→”, the Weight of lung (ICR type mice [2]; female, 1000 μg/kg) was “→” and the Weight of ovary (ICR type mice [2]; female, 1000 μg/kg) was “→”. For the same compound, the “Weight of pituitary gland” value (ICR type mice [2]; female, 1000 μg/kg) was “→”, the Weight of spleen (ICR type mice [2]; female, 1000 μg/kg) was “→” and the “Weight of thymus gland” value (ICR type mice [2]; female, 1000 μg/kg) was “→”. For the same compound, the Weight of uterus (ICR type mice [2]; female, 1000 μg/kg) was “→”, the “Weight of adrenal gland” value (ICR type mice [2]; male, 10 μg/kg) was “→” and the Weight of brain (ICR type mice [2]; male, 10 μg/kg) was “→”. For the same compound, the Weight of heart (ICR type mice [2]; male, 10 μg/kg) was “→”, the Weight of kidney (ICR type mice [2]; male, 10 μg/kg) was “→” and the Weight of liver (ICR type mice [2]; male, 10 μg/kg) was “→”. The Weight of lung (ICR type mice [2]; male, 10 μg/kg) was “→”, the “Weight of pituitary gland” value (ICR type mice [2]; male, 10 μg/kg) was “→” and the Weight of spleen (ICR type mice [2]; male, 10 μg/kg) was “→”. The Weight of testis (ICR type mice [2]; male, 10 μg/kg) was “→”, the “Weight of thymus gland” value (ICR type mice [2]; male, 10 μg/kg) was “→” and the “Weight of adrenal gland” value (ICR type mice [2]; male, 100 μg/kg) was “→”. The Weight of brain (ICR type mice [2]; male, 100 μg/kg) was “→”, the Weight of heart (ICR type mice [2]; male, 100 μg/kg) was “→” and the Weight of kidney (ICR type mice [2]; male, 100 μg/kg) was “→”. For the same compound, the Weight of liver (ICR type mice [2]; male, 100 μg/kg) was “→”, the Weight of lung (ICR type mice [2]; male, 100 μg/kg) was “→” and the “Weight of pituitary gland” value (ICR type mice [2]; male, 100 μg/kg) was “→”. The Weight of spleen (ICR type mice [2]; male, 100 μg/kg) was “→”, the Weight of testis (ICR type mice [2]; male, 100 μg/kg) was “→” and the “Weight of thymus gland” value (ICR type mice [2]; male, 100 μg/kg) was “→”. For the same compound, the “Weight of adrenal gland” value (ICR type mice [2]; male, 1000 μg/kg) was “→”, the Weight of brain (ICR type mice [2]; male, 1000 μg/kg) was “→” and the Weight of heart (ICR type mice [2]; male, 1000 μg/kg) was “→”. The Weight of kidney (ICR type mice [2]; male, 1000 μg/kg) was “→”, the Weight of liver (ICR type mice [2]; male, 1000 μg/kg) was “→” and the Weight of lung (ICR type mice [2]; male, 1000 μg/kg) was “→”. The “Weight of pituitary gland” value (ICR type mice [2]; male, 1000 μg/kg) was “→”, the Weight of spleen (ICR type mice [2]; male, 1000 μg/kg) was “→” and the Weight of testis (ICR type mice [2]; male, 1000 μg/kg) was “→”. The “Weight of thymus gland” value (ICR type mice [2]; male, 1000 μg/kg) was “→”, the cortical bone width [3] was “increase” and the “lateral diameter, D” value [3] was “increase”. For the same compound, the “trabecula of the sponge bone at epiphysis” value [3] was “increase”, the Urine ketone body (ICR type mice [4]; female, 10 μg/kg) was “→” and the Urine occult blood (ICR type mice [4]; female, 10 μg/kg) was “→”. For the same compound, the “Urine pH” value (ICR type mice [4]; female, 10 μg/kg) was “→”, the Urine protein (ICR type mice [4]; female, 10 μg/kg) was “→” and the Urine sugar (ICR type mice [4]; female, 10 μg/kg) was “→”. For the same compound, the Urobilinogen (ICR type mice [4]; female, 10 μg/kg) was “→”, the Urine ketone body (ICR type mice [4]; female, 100 μg/kg) was “→” and the Urine occult blood (ICR type mice [4]; female, 100 μg/kg) was “→”. The “Urine pH” value (ICR type mice [4]; female, 100 μg/kg) was “→”, the Urine protein (ICR type mice [4]; female, 100 μg/kg) was “→” and the Urine sugar (ICR type mice [4]; female, 100 μg/kg) was “→”. The Urobilinogen (ICR type mice [4]; female, 100 μg/kg) was “→”, the Urine ketone body (ICR type mice [4]; female, 1000 μg/kg) was “→” and the Urine occult blood (ICR type mice [4]; female, 1000 μg/kg) was “→”. For the same compound, the “Urine pH” value (ICR type mice [4]; female, 1000 μg/kg) was “→”, the Urine protein (ICR type mice [4]; female, 1000 μg/kg) was “→” and the Urine sugar (ICR type mice [4]; female, 1000 μg/kg) was “→”. For the same compound, the Urobilinogen (ICR type mice [4]; female, 1000 μg/kg) was “→”, the Urine ketone body (ICR type mice [4]; male, 10 μg/kg) was “→” and the Urine occult blood (ICR type mice [4]; male, 10 μg/kg) was “→”. The “Urine pH” value (ICR type mice [4]; male, 10 μg/kg) was “→”, the Urine protein (ICR type mice [4]; male, 10 μg/kg) was “→” and the Urine sugar (ICR type mice [4]; male, 10 μg/kg) was “→”. The Urobilinogen (ICR type mice [4]; male, 10 μg/kg) was “→”, the Urine ketone body (ICR type mice [4]; male, 100 μg/kg) was “→” and the Urine occult blood (ICR type mice [4]; male, 100 μg/kg) was “→”. For the same compound, the “Urine pH” value (ICR type mice [4]; male, 100 μg/kg) was “→”, the Urine protein (ICR type mice [4]; male, 100 μg/kg) was “→” and the Urine sugar (ICR type mice [4]; male, 100 μg/kg) was “→”. For the same compound, the Urobilinogen (ICR type mice [4]; male, 100 μg/kg) was “→”, the Urine ketone body (ICR type mice [4]; male, 1000 μg/kg) was “→” and the Urine occult blood (ICR type mice [4]; male, 1000 μg/kg) was “→”. For the same compound, the “Urine pH” value (ICR type mice [4]; male, 1000 μg/kg) was “→”, the Urine protein (ICR type mice [4]; male, 1000 μg/kg) was “→” and the Urine sugar (ICR type mice [4]; male, 1000 μg/kg) was “→”. The Urobilinogen (ICR type mice [4]; male, 1000 μg/kg) was “→”.
